According to patent publication US20140342379A1, “Means and Methods for Assessing Gonadal Toxicity” (BASF SE, priority 2011, published 2014):
Marks after values point to notes of the source that are not given here.

System: male rats
Experiment: 28-day repeated dose study, plasma metabolite profiling (GC-MS, LC-MS), male rats
Type: in vivo, rat
Description: Drinking water was also offered ad libitum.

COCCO [2-Methoxyethanol]
3-Hydroxybutyrate, plasma, treatment ratio versus control (day 7): 0.45* | 3-O-Methylsphingosine (d18:1), plasma, treatment ratio versus control (day 7): 0.53* | 5-Oxoproline, plasma, treatment ratio versus control (day 7): 0.76* | Campesterol, plasma, treatment ratio versus control (day 7): 0.58* | Ceramide (d18:1,C24:0), plasma, treatment ratio versus control (day 7): 0.75* | Ceramide (d18:1,C24:1), plasma, treatment ratio versus control (day 7): 0.82 | Cholesterol, plasma, treatment ratio versus control (day 7): 0.58* | Coenzyme Q9, plasma, treatment ratio versus control (day 7): 0.57* | Coenzyme Q10, plasma, treatment ratio versus control (day 7): 0.7* | Dodecanol, plasma, treatment ratio versus control (day 7): 0.8 | Glutamine, plasma, treatment ratio versus control (day 7): 0.68* | Histidine, plasma, treatment ratio versus control (day 7): 1.13 | Isopalmitic acid (C16:0), plasma, treatment ratio versus control (day 7): 1.03 | Lignoceric acid (C24:0), plasma, treatment ratio versus control (day 7): 0.61* | Linoleic acid (C18:cis[9,12]2), plasma, treatment ratio versus control (day 7): 1.07 | Lysine, plasma, treatment ratio versus control (day 7): 1.22* | Myristic acid (C14:0), plasma, treatment ratio versus control (day 7): 0.87 | Palmitic acid (C16:0), plasma, treatment ratio versus control (day 7): 0.92 | Palmitoleic acid (C16:cis[9]1), plasma, treatment ratio versus control (day 7): 0.71* | Sphingomyelin (d18:1,C16:0), plasma, treatment ratio versus control (day 7): 0.84* | Sphingomyelin (d18:1,C24:0), plasma, treatment ratio versus control (day 7): 0.68* | Stearic acid (C18:0), plasma, treatment ratio versus control (day 7): 0.8* | Threonine, plasma, treatment ratio versus control (day 7): 1.72* | alpha-Tocopherol, plasma, treatment ratio versus control (day 7): 0.78 | erythro-Sphingosine, plasma, treatment ratio versus control (day 7): 0.57* | 3-Hydroxybutyrate, plasma, treatment ratio versus control (day 14): 0.24* | 3-O-Methylsphingosine (d18:1), plasma, treatment ratio versus control (day 14): 0.67* | 5-Oxoproline, plasma, treatment ratio versus control (day 14): 0.67* | Ceramide (d18:1,C24:0), plasma, treatment ratio versus control (day 14): 0.7* | Ceramide (d18:1,C24:1), plasma, treatment ratio versus control (day 14): 0.62* | Cholesterol, plasma, treatment ratio versus control (day 14): 0.61* | Coenzyme Q9, plasma, treatment ratio versus control (day 14): 0.58* | Coenzyme Q10, plasma, treatment ratio versus control (day 14): 0.49* | Dodecanol, plasma, treatment ratio versus control (day 14): 0.77* | Glutamine, plasma, treatment ratio versus control (day 14): 0.71 | Histidine, plasma, treatment ratio versus control (day 14): 1.4* | Isopalmitic acid (C16:0), plasma, treatment ratio versus control (day 14): 0.43* | Lignoceric acid (C24:0), plasma, treatment ratio versus control (day 14): 0.46* | Linoleic acid (C18:cis[9,12]2), plasma, treatment ratio versus control (day 14): 0.77* | Myristic acid (C14:0), plasma, treatment ratio versus control (day 14): 0.57* | Palmitic acid (C16:0), plasma, treatment ratio versus control (day 14): 0.75* | Palmitoleic acid (C16:cis[9]1), plasma, treatment ratio versus control (day 14): 0.39* | Sphingomyelin (d18:1,C16:0), plasma, treatment ratio versus control (day 14): 0.88* | Sphingomyelin (d18:1,C24:0), plasma, treatment ratio versus control (day 14): 0.56* | Stearic acid (C18:0), plasma, treatment ratio versus control (day 14): 0.84* | Threonine, plasma, treatment ratio versus control (day 14): 2.93* | alpha-Tocopherol, plasma, treatment ratio versus control (day 14): 0.76* | erythro-Sphingosine, plasma, treatment ratio versus control (day 14): 0.67*

Cc1ncc[nH]1 [2-Methylimidazole]
18-Hydroxy-11-deoxycorticosterone, plasma, treatment ratio versus control (day 7): 0.49* | Alanine, plasma, treatment ratio versus control (day 7): 0.76* | Arachidonic acid (C20:cis[5,8,11,14]4), plasma, treatment ratio versus control (day 7): 0.76* | Coenzyme Q9, plasma, treatment ratio versus control (day 7): 0.72* | Creatinine, plasma, treatment ratio versus control (day 7): 1.23* | DAG (C18:1, C18:2), plasma, treatment ratio versus control (day 7): 0.81 | Fructose-6-phosphate, plasma, treatment ratio versus control (day 7): 0.76 | Galactose, lipid fraction, plasma, treatment ratio versus control (day 7): 0.81* | Glucosamine, plasma, treatment ratio versus control (day 7): 1 | Glucose, plasma, treatment ratio versus control (day 7): 0.86* | Glycerol, polar fraction, plasma, treatment ratio versus control (day 7): 0.75* | Heneicosanoic acid (C21:0), plasma, treatment ratio versus control (day 7): 0.92 | Lactate, plasma, treatment ratio versus control (day 7): 0.68 | Linolenic acid (C18:cis[9,12,15]3), plasma, treatment ratio versus control (day 7): 0.59* | Lysine, plasma, treatment ratio versus control (day 7): 0.81* | Malate, plasma, treatment ratio versus control (day 7): 0.65* | Oleic acid (C18:cis[9]1), plasma, treatment ratio versus control (day 7): 0.85* | Palmitoleic acid (C16:cis[9]1), plasma, treatment ratio versus control (day 7): 0.81 | Phenylalanine, plasma, treatment ratio versus control (day 7): 0.96 | Phosphate (inorganic and organic phosphates), plasma, treatment ratio versus control (day 7): 0.9* | Pyruvate, plasma, treatment ratio versus control (day 7): 0.84 | Spermidine, plasma, treatment ratio versus control (day 7): 0.77* | TAG (C16:0,C16:1), plasma, treatment ratio versus control (day 7): 0.67* | Uracil, plasma, treatment ratio versus control (day 7): 0.67* | myo-Inositol, plasma, treatment ratio versus control (day 7): 0.85* | trans-4-Hydroxyproline, plasma, treatment ratio versus control (day 7): 0.73* | 18-Hydroxy-11-deoxycorticosterone, plasma, treatment ratio versus control (day 14): 0.59* | Alanine, plasma, treatment ratio versus control (day 14): 0.84* | Arachidonic acid (C20:cis[5,8,11,14]4), plasma, treatment ratio versus control (day 14): 0.83* | Coenzyme Q9, plasma, treatment ratio versus control (day 14): 0.67* | Creatinine, plasma, treatment ratio versus control (day 14): 1.45* | DAG (C18:1, C18:2), plasma, treatment ratio versus control (day 14): 0.74* | Fructose-6-phosphate, plasma, treatment ratio versus control (day 14): 1.08 | Galactose, lipid fraction, plasma, treatment ratio versus control (day 14): 1 | Glucosamine, plasma, treatment ratio versus control (day 14): 1.15 | Glucose, plasma, treatment ratio versus control (day 14): 0.88* | Glycerol, polar fraction, plasma, treatment ratio versus control (day 14): 0.84* | Heneicosanoic acid (C21:0), plasma, treatment ratio versus control (day 14): 0.87* | Lactate, plasma, treatment ratio versus control (day 14): 0.69* | Linolenic acid (C18:cis[9,12,15]3), plasma, treatment ratio versus control (day 14): 0.57* | Lysine, plasma, treatment ratio versus control (day 14): 0.97 | Malate, plasma, treatment ratio versus control (day 14): 0.8* | Oleic acid (C18:cis[9]1), plasma, treatment ratio versus control (day 14): 0.82* | Palmitoleic acid (C16:cis[9]1), plasma, treatment ratio versus control (day 14): 0.77* | Phenylalanine, plasma, treatment ratio versus control (day 14): 0.96* | Phosphate (inorganic and organic phosphates), plasma, treatment ratio versus control (day 14): 0.89* | Pyruvate, plasma, treatment ratio versus control (day 14): 0.69* | Spermidine, plasma, treatment ratio versus control (day 14): 0.69* | TAG (C16:0,C16:1), plasma, treatment ratio versus control (day 14): 0.38* | Uracil, plasma, treatment ratio versus control (day 14): 0.67* | myo-Inositol, plasma, treatment ratio versus control (day 14): 0.97 | trans-4-Hydroxyproline, plasma, treatment ratio versus control (day 14): 0.75* | 18-Hydroxy-11-deoxycorticosterone, plasma, treatment ratio versus control (day 28): 0.58 | Alanine, plasma, treatment ratio versus control (day 28): 0.92* | Arachidonic acid (C20:cis[5,8,11,14]4), plasma, treatment ratio versus control (day 28): 0.97 | Coenzyme Q9, plasma, treatment ratio versus control (day 28): 0.73* | Creatinine, plasma, treatment ratio versus control (day 28): 1.65* | DAG (C18:1, C18:2), plasma, treatment ratio versus control (day 28): 0.67 | Fructose-6-phosphate, plasma, treatment ratio versus control (day 28): 0.83* | Galactose, lipid fraction, plasma, treatment ratio versus control (day 28): 1.15 | Glucosamine, plasma, treatment ratio versus control (day 28): 0.84 | Glucose, plasma, treatment ratio versus control (day 28): 0.87* | Glycerol, polar fraction, plasma, treatment ratio versus control (day 28): 0.79* | Heneicosanoic acid (C21:0), plasma, treatment ratio versus control (day 28): 1.08 | Lactate, plasma, treatment ratio versus control (day 28): 0.77* | Linolenic acid (C18:cis[9,12,15]3), plasma, treatment ratio versus control (day 28): 0.53* | Lysine, plasma, treatment ratio versus control (day 28): 0.88* | Malate, plasma, treatment ratio versus control (day 28): 0.69* | Oleic acid (C18:cis[9]1), plasma, treatment ratio versus control (day 28): 0.8* | Palmitoleic acid (C16:cis[9]1), plasma, treatment ratio versus control (day 28): 0.88* | Phenylalanine, plasma, treatment ratio versus control (day 28): 0.93* | Phosphate (inorganic and organic phosphates), plasma, treatment ratio versus control (day 28): 1.02 | Pyruvate, plasma, treatment ratio versus control (day 28): 0.69* | Spermidine, plasma, treatment ratio versus control (day 28): 0.79* | TAG (C16:0,C16:1), plasma, treatment ratio versus control (day 28): 0.71* | Uracil, plasma, treatment ratio versus control (day 28): 0.77* | myo-Inositol, plasma, treatment ratio versus control (day 28): 0.91* | trans-4-Hydroxyproline, plasma, treatment ratio versus control (day 28): 0.81*

C#CC1(O)CCC2C3CCc4cc(O)ccc4C3CCC21C (stereo not drawn) [17-alpha-Ethynylestradiol, 17-ethynyl-13-methyl-7,8,9,11,12,13,14,15,16,17-decahydro-6H-cyclopenta[a]phenanthrene-3,17-diol]
3-Hydroxybutyrate, plasma, treatment ratio versus control (day 7): 0.71 | 3-O-Methylsphingosine (d18:1), plasma, treatment ratio versus control (day 7): 0.06 | Campesterol, plasma, treatment ratio versus control (day 7): 0.08 | Cholesterol, plasma, treatment ratio versus control (day 7): 0.05 | Coenzyme Q9, plasma, treatment ratio versus control (day 7): 0.09* | Coenzyme Q10, plasma, treatment ratio versus control (day 7): 0.09* | Glutamine, plasma, treatment ratio versus control (day 7): 0.84 | Histidine, plasma, treatment ratio versus control (day 7): 2.33* | Lysine, plasma, treatment ratio versus control (day 7): 1.47 | Palmitoleic acid (C16:cis[9]1), plasma, treatment ratio versus control (day 7): 0.2 | Stearic acid (C18:0), plasma, treatment ratio versus control (day 7): 0.18 | Threonine, plasma, treatment ratio versus control (day 7): 1.44* | erythro-Sphingosine, plasma, treatment ratio versus control (day 7): 0.03 | 3-Hydroxybutyrate, plasma, treatment ratio versus control (day 14): 0.23* | 3-O-Methylsphingosine (d18:1), plasma, treatment ratio versus control (day 14): 0.35* | Campesterol, plasma, treatment ratio versus control (day 14): 0.6* | Cholesterol, plasma, treatment ratio versus control (day 14): 0.57* | Coenzyme Q9, plasma, treatment ratio versus control (day 14): 0.86 | Coenzyme Q10, plasma, treatment ratio versus control (day 14): 0.36* | Glutamine, plasma, treatment ratio versus control (day 14): 0.91 | Histidine, plasma, treatment ratio versus control (day 14): 2.16* | Lignoceric acid (C24:0), plasma, treatment ratio versus control (day 14): 0.47* | Lysine, plasma, treatment ratio versus control (day 14): 1.4* | Palmitoleic acid (C16:cis[9]1), plasma, treatment ratio versus control (day 14): 1.28 | Stearic acid (C18:0), plasma, treatment ratio versus control (day 14): 0.67* | Threonine, plasma, treatment ratio versus control (day 14): 1.85* | erythro-Sphingosine, plasma, treatment ratio versus control (day 14): 0.45*
